# Source: PubChem BioAssay AID2060361 (Molecular Pharmacology Branch, DTP, NCI, 2025)
# System: 463943-066-T-J2-PDC tumor spheroids with HUVEC/MSC, viability
# Test: Anticancer human tumor 463943-066-T-J2-PDC patient-derived colon adenocarcinoma cell line growth inhibition [TAK]
# Details: for IC50: curve of first compound; for viability, T/C: stronger effect = lower value
# Description: Combinatorial screen of targeted agents with TAK-243 and ipatasertib in multi-cell type tumor spheroids
# A high-throughput screen of multi-cell type tumor spheroids was designed to identify active combinations of targeted small molecules and TAK-243 or ipatasertib. Complex spheroids include a stromal component modeled by human endothelial cells (HUVEC) and fibroblasts modeled by human mesenchymal stem cells (MSCs). The concentration ranges selected for each drug and investigational agent were based upon clinically achievable concentrations if the clinical Cmax of the agent was known.
# Compounds. The drugs and investigational agents: TAK-243 (785004), ipatasertib (767898), everolimus (733504), selumetinib (741078), bortezomib (756655), trametinib (758246), ixazomib (758254), vemurafenib (761431), dabrafenib (764134), sapanisertib (764658), alpelisib (765974), and copanlisib (816437), were obtained from the National Cancer Institute (NCI) Developmental Therapeutics Program Chemical Repository. The FDA-approved anticancer drug set is available from the NCI Developmental Therapeutics Program. […] The stock solutions were prepared in dimethyl sulfoxide (DMSO, Sigma-Aldrich, St. Louis, MO, cat. D2650) at 800-fold the tested concentration and stored at -70 degrees C prior to their use. All drugs and investigational agents were tested over a range starting from a high concentration at or near the clinical Cmax and decreasing in half-log increments. If the clinical Cmax for an agent had not been determined, the highest concentration tested was 10 microM.
# NCI60 Cell Culture. NCI60 cell lines were obtained from the NCI Developmental Therapeutics Program Tumor Repository. For each lot of cells, the Repository performed Applied Biosystems AmpFLSTR Identifiler testing with PCR amplification to confirm consistency with the published Identifier STR profile for each cell line. Cells were kept in continuous culture for no more than 20 passages. The optimal seeding densities for each of the cell lines at each time point assessed were determined prior to performing the concentration response studies. Briefly, the NCI60 human tumor lines were grown as monolayers in RPMI 1640 medium supplemented with 10% FBS and 2 mmol/L L-glutamine.
# An additional 2 lines were from the NCI60 cell line panel including melanomas, MALME-3M and SK-MEL-2. Pooled donor human umbilical vein endothelial cells (HUVEC, Lonza, cat. CC-2519) and human mesenchymal stem cells (hMSC, Lonza, cat. PT-2501) were purchased from Lonza (Walkersville, MD).
# PDMR cell lines were grown in complete medium (DC medium): Dulbecco's modified Eagle's medium (DMEM)/F12 supplemented with 5% fetal bovine serum (FBS), 2 mM L-glutamine, 100 U/mL penicillin and 100 µg/ml streptomycin, 0.4 µg/ml hydrocortisone, 10 ng/ml epidermal growth factor (EGF) recombinant human protein, 24 µg/mL adenine, and 0.1 mg/mL primocin. During culture from frozen stock vials, PDMR cells were cultured in the same medium containing 10 µM Y-27632 (see Table 3). The PDCs were cultured in complete DMEM/F12 media without 10 microM Y-27632 dihydrochloride for at least two passages prior to the screen. The pooled donor HUVEC and hMSC were cultured in endothelial cell growth medium 2 (PromoCell, Heidelberg, Germany, cat. C-22011) and mesenchymal stem cell growth medium 2 (PromoCell, cat. C-28009), respectively. For all experiments, HUVEC and hMSC were used at passages </=5.
# For the pre-screen, cell seeding densities were determined from a titration spanning the range from 5,000 to 313 cells per well. The mct-spheroids including 60% malignant cells, 25% HUVEC and 15% MSC dispensed as a mixture into U-bottom Ultra-Low Attachment 384-well plates (Corning, NY)
# High-throughput Drug Combination Screening.
# Prior to their inoculation into 384-well plates, malignant cells, HUVEC, and hMSC were removed from T flasks using TrypLE express (Thermo Fisher Scientific, cat. 12605036) and harvested by centrifugation for 5 min at 233 x g. […]
# [1] = second compound 0.3 µM, first compound 0.0316 µM
# [2] = second compound 0.3 µM, first compound 0.1 µM
# [3] = second compound 0.949 µM, first compound 0.0316 µM
# [4] = second compound 0.949 µM, first compound 0.1 µM
# [5] = second compound 3 µM, first compound 0.0316 µM
# [6] = second compound 3 µM, first compound 0.1 µM
# [7] = second compound 9.49 µM, first compound 0.0316 µM
# [8] = second compound 9.49 µM, first compound 0.1 µM
# [9] = second compound 30 µM, first compound 0.0316 µM
# [10] = second compound 30 µM, first compound 0.1 µM
# 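Also: spheroids exposed to drugs for seven days.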
# 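For viability, T/C in this document: 100% = DMSO vehicle control wells.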
smiles,measurement,setting,value
CC(C)(C)c1nc(-c2cccc(NS(=O)(=O)c3c(F)cccc3F)c2F)c(-c2ccnc(N)n2)s1 + CC(C)NCC(C(=O)N1CCN(c2ncnc3c2C(C)CC3O)CC1)c1ccc(Cl)cc1,IC50,second compound 0.3 µM,> 10 µM
same,IC50,second compound 0.949 µM,> 10 µM
same,IC50,second compound 3 µM,> 10 µM
same,IC50,second compound 9.49 µM,> 10 µM
same,IC50,second compound 30 µM,> 10 µM
same,"viability, T/C",[1],110%
same,"viability, T/C",[2],111%
same,"viability, T/C","second compound 0.3 µM, first compound 0.316 µM",107%
same,"viability, T/C","second compound 0.3 µM, first compound 1 µM",112%
same,"viability, T/C","second compound 0.3 µM, first compound 3.16 µM",100%
same,"viability, T/C","second compound 0.3 µM, first compound 10 µM",92.5%
same,"viability, T/C",[3],115%
same,"viability, T/C",[4],111%
same,"viability, T/C","second compound 0.949 µM, first compound 0.316 µM",105%
same,"viability, T/C","second compound 0.949 µM, first compound 1 µM",111%
same,"viability, T/C","second compound 0.949 µM, first compound 3.16 µM",103%
same,"viability, T/C","second compound 0.949 µM, first compound 10 µM",88.3%
same,"viability, T/C",[5],99%
same,"viability, T/C",[6],109%
same,"viability, T/C","second compound 3 µM, first compound 0.316 µM",92.2%
same,"viability, T/C","second compound 3 µM, first compound 1 µM",102%
same,"viability, T/C","second compound 3 µM, first compound 3.16 µM",110%
same,"viability, T/C","second compound 3 µM, first compound 10 µM",101%
same,"viability, T/C",[7],100%
same,"viability, T/C",[8],111%
same,"viability, T/C","second compound 9.49 µM, first compound 0.316 µM",99.2%
same,"viability, T/C","second compound 9.49 µM, first compound 1 µM",109%
same,"viability, T/C","second compound 9.49 µM, first compound 3.16 µM",107%
same,"viability, T/C","second compound 9.49 µM, first compound 10 µM",104%
same,"viability, T/C",[9],91%
same,"viability, T/C",[10],98.6%
same,"viability, T/C","second compound 30 µM, first compound 0.316 µM",100%
same,"viability, T/C","second compound 30 µM, first compound 1 µM",97.2%
same,"viability, T/C","second compound 30 µM, first compound 3.16 µM",104%
same,"viability, T/C","second compound 30 µM, first compound 10 µM",91.1%
CC(C)CC(NC(=O)CNC(=O)c1cc(Cl)ccc1Cl)B1OC(=O)CC(CC(=O)O)(C(=O)O)O1 (stereo not given) + CC(C)NCC(C(=O)N1CCN(c2ncnc3c2C(C)CC3O)CC1)c1ccc(Cl)cc1,IC50,second compound 0.3 µM,> 0.1 µM
same,IC50,second compound 0.949 µM,> 0.1 µM
same,IC50,second compound 3 µM,> 0.1 µM
same,IC50,second compound 9.49 µM,> 0.1 µM
same,IC50,second compound 30 µM,> 0.1 µM
same,"viability, T/C","second compound 0.3 µM, first compound 0.000316 µM",117%
same,"viability, T/C","second compound 0.3 µM, first compound 0.001 µM",107%
same,"viability, T/C","second compound 0.3 µM, first compound 0.00316 µM",106%
same,"viability, T/C","second compound 0.3 µM, first compound 0.01 µM",101%
same,"viability, T/C",[1],88.8%
same,"viability, T/C",[2],80.5%
same,"viability, T/C","second compound 0.949 µM, first compound 0.000316 µM",98.3%
same,"viability, T/C","second compound 0.949 µM, first compound 0.001 µM",102%
same,"viability, T/C","second compound 0.949 µM, first compound 0.00316 µM",99%
same,"viability, T/C","second compound 0.949 µM, first compound 0.01 µM",105%
same,"viability, T/C",[3],86.9%
same,"viability, T/C",[4],72.6%
same,"viability, T/C","second compound 3 µM, first compound 0.000316 µM",116%
same,"viability, T/C","second compound 3 µM, first compound 0.001 µM",98.9%
same,"viability, T/C","second compound 3 µM, first compound 0.00316 µM",95.4%
same,"viability, T/C","second compound 3 µM, first compound 0.01 µM",98.5%
same,"viability, T/C",[5],83.5%
same,"viability, T/C",[6],80.7%
same,"viability, T/C","second compound 9.49 µM, first compound 0.000316 µM",91.4%
same,"viability, T/C","second compound 9.49 µM, first compound 0.001 µM",123%
same,"viability, T/C","second compound 9.49 µM, first compound 0.00316 µM",97.2%
same,"viability, T/C","second compound 9.49 µM, first compound 0.01 µM",95.2%
same,"viability, T/C",[7],78.1%
same,"viability, T/C",[8],85.7%
same,"viability, T/C","second compound 30 µM, first compound 0.000316 µM",93.8%
same,"viability, T/C","second compound 30 µM, first compound 0.001 µM",99.1%
same,"viability, T/C","second compound 30 µM, first compound 0.00316 µM",90.6%
same,"viability, T/C","second compound 30 µM, first compound 0.01 µM",90.4%
same,"viability, T/C",[9],81.3%
same,"viability, T/C",[10],71.7%
